Experiment [1] concerns T47D cells. Nature of the experiment: Cell-based assay: anti-proliferative activity, Cell Counting Kit-8, 72 hours (T47D). As to conditions: Homo sapiens, T47D, 72 h. On the procedure: (§1) To evaluate the expression status of MELK in several cell lines, western blot analysis was performed using crude cell lysate collected from those cells. Anti-MELK antibody (clone 31, BD Biosciences) was used to visualize the expression.
(§2) Active candidate inhibitors against MELK were evaluated for their target-specific cytotoxicity using T47D, A549, BT-549, and HT-1197 cells was used for negative control. 100 micro-L of cell suspension was seeded onto 96-well microtiter plate (ViewPlate-96FTC, PerkinElmer). The initial cell concentration of T47D, A549, BT-549, and HT-1197 were 3,000 cells/well, 2,000 cells/well and 2,500 cells/well, respectively. Cellular growth was determined using Cell Counting Kit-8 (DOJINDO) at 72 hours after the exposure of the candidate inhibitors. […] Accurate IC50 values were calculated as described previously.

The test system of experiment [2] is A549 cells. Nature of the experiment: Cell-based assay: anti-proliferative activity, Cell Counting Kit-8, 72 hours (A549). The following applies: Homo sapiens, A549, 72 h, 72 hours. On the procedure: 100 micro-L of cell suspension was seeded onto 96-well microtiter plate (ViewPlate-96FTC, PerkinElmer). The initial cell concentration of T47D, A549, BT-549, and HT-1197 were 3,000 cells/well, 2,000 cells/well and 2,500 cells/well, respectively. Cellular growth was determined using Cell Counting Kit-8 (DOJINDO) at 72 hours after the exposure of the candidate inhibitors. […] Accurate IC50 values were calculated as described previously.
For orientation: Tetrazolium dyes change colour on reduction, which living cells bring about.

The target of experiment [3] is MELK (Homo sapiens, UniProt Q14680). Nature of the experiment: Kinase assay: MELK activity, phosphorylation of FITC-labeled histone H3 peptide measured by IMAP fluorescence polarization. Format: biochemical. As to conditions: read-out: IC50 (μM) (kinase assay). On the procedure: MELK activity was determined in the presence or absence of compounds using fluorescein isothiocyanate-labeled (FITC-labeled) histone H3 peptide as a substrate. […] Test compounds were dissolved in DMSO at 12.5 mM and then serially diluted as the DMSO concentration in the assays to be 1%. […] The reaction was stopped by the addition of three fold assay volume of progressive binding solution. Following 0.5 hour incubation at room temperature, fluorescence polarization was measured by Wallac EnVision 2103 multilabel reader (PerkinElmer).
Sequence of MELK (Q14680 whole entry, looked up): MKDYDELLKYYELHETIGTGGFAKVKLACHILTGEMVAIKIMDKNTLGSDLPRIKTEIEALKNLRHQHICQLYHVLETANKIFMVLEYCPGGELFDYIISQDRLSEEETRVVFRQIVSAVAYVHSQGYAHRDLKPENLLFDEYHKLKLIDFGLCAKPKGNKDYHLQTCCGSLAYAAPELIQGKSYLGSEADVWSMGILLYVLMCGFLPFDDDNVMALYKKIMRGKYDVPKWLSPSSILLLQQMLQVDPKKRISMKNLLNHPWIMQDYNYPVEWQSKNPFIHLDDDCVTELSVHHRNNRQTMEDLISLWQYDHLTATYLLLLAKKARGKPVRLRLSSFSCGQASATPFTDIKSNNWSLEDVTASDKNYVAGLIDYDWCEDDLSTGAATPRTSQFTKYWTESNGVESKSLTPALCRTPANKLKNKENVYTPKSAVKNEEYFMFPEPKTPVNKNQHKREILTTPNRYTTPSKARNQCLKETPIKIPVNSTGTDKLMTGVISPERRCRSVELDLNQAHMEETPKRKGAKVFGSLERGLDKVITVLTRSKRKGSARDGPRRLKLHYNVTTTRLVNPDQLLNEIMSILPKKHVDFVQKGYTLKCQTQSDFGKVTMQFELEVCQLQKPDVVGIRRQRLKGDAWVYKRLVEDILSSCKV
Background: Polarisation of emitted light reports the rotation of a fluorescent probe.

The test system of experiment [4] is HT-1197 cells. In words: Cell-based assay: anti-proliferative activity, Cell Counting Kit-8, 72 hours (HT-1197, negative control without MELK expression). As to conditions: Homo sapiens, HT1197, 72 h, 72 hours. The method, then: as §1, §2
Setting [5] is: 50 micro-M ATP, FITC-labeled histone H3 peptide substrate, IMAP fluorescence polarization.
The mark [6] stands for this setting: HT1197 cells (negative control, no MELK expression).
Setting [7] is: HT1197 cells (negative control).

Structures can show the parent of a compound that is named as a salt. Where two headings read alike, the source gives them in different places.

For 24 compounds, IC50 results are on record in US9120749B2, “Quinoline derivatives and MELK inhibitors containing the same” (ONCOTHERAPY SCIENCE, INC., priority 2010, dated 2015).

Turning to `CN1CCN(C(=O)CNc2c(C(=O)C3CC3)cnc3ccc(-c4ccc(O)c(Cl)c4)cc23)CC1` [Example 393, 2-(6-(3-chloro-4-hydroxyphenyl)-3-(cyclopropanecarbonyl)quinolin-4-ylamino)-1-(4-methylpiperazin-1-yl)ethanone], the IC50 – broadly, the point on the concentration scale where inhibition reaches its midpoint – in experiment [1] is 2.6 µM; in experiment [2], 2.2 µM; in experiment [3] (setting [5]) it was 0.095 µM.
As for `COc1cc(-c2ccc3ncc(C(=O)C4CC4)c(NCC(=O)N4CCN(C)CC4)c3c2)cc(Cl)c1O` [Example 395, 2-(6-(3-chloro-4-hydroxy-5-methoxyphenyl)-3-(cyclopropanecarbonyl)quinolin-4-ylamino)-1-(4-methylpiperazin-1-yl)ethanone], the concentration for half-maximal inhibition (IC50) in experiment [1] amounted to 10 µM; in experiment [4] (setting [6]), 10 µM; in experiment [3] (setting [5]) it was 1 µM.
Turning to `CC(=O)c1cnc2ccc(-c3cnc(C#N)nc3)cc2c1Nc1ccc(CN(C)C)cc1` [Example 414, 5-(3-acetyl-4-(4-((dimethylamino)methyl)phenylamino)quinolin-6-yl)pyrimidine-2-carbonitrile], the figures for the IC50 in experiment [1], in experiment [4] (setting [6]) and in experiment [2] were 0.24 µM, 0.8 µM and 1.5 µM, respectively.
For `COc1cc(-c2ccc3ncc(C(C)=O)c(Nc4ccc(CN5CCCC5)cc4)c3c2)cc(Cl)c1O` [Example 419, 1-(6-(3-chloro-4-hydroxy-5-methoxyphenyl)-4-(4-(pyrrolidin-1-ylmethyl)phenylamino)quinolin-3-yl)ethanone], the IC50 in experiment [1] is 0.99 µM; in experiment [4] (setting [6]), 5.1 µM; in experiment [2], 0.84 µM.
As to `CN(C)CC1CCN(c2c(C(=O)C3CC3)cnc3ccc(-c4ccc(OC(F)F)cc4)cc23)CC1` [Example 458], the IC50 in experiment [1] turned out to be 7.2 µM; in experiment [4] (setting [6]) it was 8.4 µM.
`CN(C)CC1CCN(c2c(C(=O)C3CC3)cnc3ccc(-c4ccc(C(F)F)cc4)cc23)CC1` [Example 465]: the half-inhibitory concentration (IC50) is 8.6 µM in experiment [1], 5.6 µM in experiment [4] (setting [6]) and 0.91 µM in experiment [3] (setting [5]).
For the compound `CN(C)CC1CCN(c2c(C(=O)C3CC3)cnc3ccc(-c4ccc5c(c4)CC(=O)N5)cc23)CC1` [Example 474], the IC50 in experiment [1] and in experiment [4] (setting [6]) was 10 µM in each case.
As to `COC(=O)c1ccc(-c2ccc3ncc(C(=O)C4CC4)c(N4CCC(CN(C)C)CC4)c3c2)cc1` [Example 481, methyl 4-(3-(cyclopropanecarbonyl)-4-(4-((dimethylamino)methyl)piperidin-1-yl)quinolin-6-yl)benzoate], the figures for the IC50 in experiment [1], in experiment [4] (setting [6]) and in experiment [3] were 10 µM, 10 µM and 1.4 µM, respectively.
As for `CN(C)CC1CCN(c2c(C(=O)C3CC3)cnc3ccc(-c4ccc(C(=O)O)cc4)cc23)CC1` [Example 492, 4-(3-(cyclopropanecarbonyl)-4-(4-((dimethylamino)methyl)piperidin-1-yl)quinolin-6-yl)benzoic acid], the IC50 is 10 µM in experiment [1], 10 µM in experiment [4] (setting [6]) and 1.4 µM in experiment [3].
Regarding `COc1cc(-c2ccc3ncc(C(=O)C4CC4)c(-c4cn[nH]c4)c3c2)cc(Cl)c1O` [Example 536, (6-(3-chloro-4-hydroxy-5-methoxyphenyl)-4-(1H-pyrazol-4-yl)quinolin-3-yl)(cyclopropyl)methanone], the values for the half-maximal inhibitory concentration (IC50) in experiment [1], in experiment [4] (setting [7]) and in experiment [3] were 1.3 µM, 14 µM and 0.11 µM, respectively.
The matching figures for `COc1cc(-c2cc(F)c3ncc(C(=O)C4CC4)c(Nc4ccc(CN(C)C)cc4)c3c2)cc(Cl)c1O` [Example 551, (6-(3-chloro-4-hydroxy-5-methoxyphenyl)-4-(4-((dimethylamino)methyl)phenylamino)-8-fluoroquinolin-3-yl)(cyclopropyl)methanone]: 2 µM, 6.9 µM and 1.1 µM.
Regarding `CN(C)Cc1ccc(Nc2c(C(=O)C3CC3)cnc3c(F)cc(-c4cc(Cl)c(O)c(Cl)c4)cc23)cc1` [Example 552, cyclopropyl(6-(3,5-dichloro-4-hydroxyphenyl)-4-(4-((dimethylamino)methyl)phenylamino)-8-fluoroquinolin-3-yl)methanone], the IC50 turned out to be 1.1 µM in experiment [1], 9 µM in experiment [4] (setting [7]) and 0.58 µM in experiment [3].
The matching figures for `N[C@H]1CC[C@H](Nc2c(C(=O)C3CC3)cnc3c(F)cc(-c4cc(F)c(O)c(Cl)c4)cc23)CC1` [Example 555]: 0.44 µM, 10 µM and 5.1 µM.
Consider `CN[C@H]1CC[C@H](Nc2c(C(C)=O)cnc3ccc(-c4cc(F)c(O)c(Cl)c4)cc23)CC1` [Example 560], for which the figures for the IC50 in experiment [1], in experiment [4] (setting [7]) and in experiment [3] were 0.041 µM, 10 µM and 0.11 µM, respectively.
The matching figures for `CN(C)Cc1ccc(Nc2c(C(=O)C3CC3)cnc3c(F)cc(-c4cc(F)c(O)c(Cl)c4)cc23)cc1` [Example 563, (6-(3-chloro-5-fluoro-4-hydroxyphenyl)-4-(4-((dimethylamino)methyl)phenylamino)-8-fluoroquinolin-3-yl)(cyclopropyl)methanone]: 1.3 µM, 3.3 µM and 1.8 µM.
On to `COc1cc(-c2cc(F)c3ncc(C(=O)C4CC4)c(N[C@H]4CC[C@H](N)CC4)c3c2)cc(Cl)c1O` [Example 564], for which the figures for the IC50 in experiment [1], in experiment [4] (setting [7]) and in experiment [3] were 0.43 µM, 1.8 µM and 0.26 µM, respectively.
The matching figures for `N[C@H]1CC[C@H](Nc2c(C(=O)C3CC3)cnc3c(F)cc(-c4cc(Cl)c(O)c(Cl)c4)cc23)CC1` [Example 565]: 0.3 µM, 10 µM and 2.1 µM.
The matching figures for `O=C(c1cnc2ccc(-c3cc(Cl)c(O)c(Cl)c3)cc2c1Nc1ccc(CN2CCC(F)(F)C2)cc1)C1CC1` [Example 581, cyclopropyl(6-(3,5-dichloro-4-hydroxyphenyl)-4-(4-((3,3-difluoropyrrolidin-1-yl)methyl)phenylamino)quinolin-3-yl)methanone]: 1.4 µM, 5.3 µM and 0.63 µM.
Consider `CCCC(=O)c1cnc2ccc(-c3cc(Cl)c(O)c(Cl)c3)cc2c1Nc1ccc(N2CCNCC2)nc1` [Example 625, 1-(6-(3,5-dichloro-4-hydroxyphenyl)-4-(6-(piperazin-1-yl)pyridin-3-ylamino)quinolin-3-yl)butan-1-one], for which the IC50 amounted to 1.5 µM in experiment [1], 10 µM in experiment [4] (setting [7]) and 0.15 µM in experiment [3].
`O=C(c1cnc2ccc(-c3cc(Cl)c(O)c(Cl)c3)cc2c1NC1CCC(N2CCC(F)(F)C2)CC1)C1CC1` (stereo not drawn) [Example 664, cyclopropyl(6-(3,5-dichloro-4-hydroxyphenyl)-4-(4-(3,3-difluoropyrrolidin-1-yl)cyclohexylamino)quinolin-3-yl)methanone]: the IC50 turned out to be 1.7 µM in experiment [1], 10 µM in experiment [4] (setting [6]) and 0.14 µM in experiment [3].
The matching figures for `O=C(c1cnc2ccc(-c3cc(F)c(O)c(Cl)c3)cc2c1NC1CCC(N2CCC(F)(F)C2)CC1)C1CC1` (stereo not drawn) [Example 675, (6-(3-chloro-5-fluoro-4-hydroxyphenyl)-4-(4-(3,3-difluoropyrrolidin-1-yl)cyclohexylamino)quinolin-3-yl)(cyclopropyl)methanone]: 0.8 µM, 4.4 µM and 0.83 µM.
As for `COc1cc(-c2ccc3ncc(C(=O)C4CC4)c(NC4CCC(N5CCC(F)(F)C5)CC4)c3c2)cc(Cl)c1O` (stereo not drawn) [Example 676, (6-(3-chloro-4-hydroxy-5-methoxyphenyl)-4-(4-(3,3-difluoropyrrolidin-1-yl)cyclohexylamino)quinolin-3-yl)(cyclopropyl)methanone], the IC50 in experiment [1] is 1 µM; in experiment [4] (setting [6]), 11 µM; in experiment [3] it was 0.29 µM.
For the compound `CC(=O)c1cnc2ccc(-c3cc(F)c(O)c(Cl)c3)cc2c1N[C@H]1CC[C@H](CN(C)C)CC1` [Example 943, 1-(6-(3-chloro-5-fluoro-4-hydroxyphenyl)-4-((trans-4-((dimethylamino)methyl)cyclohexyl)amino)quinolin-3-yl)ethanone dihydrochloride], the IC50 in experiment [3] (MELK kinase assay, IMAP fluorescence polarization, 50 micro-M ATP, dihydrochloride) came out at 0.004 µM.
With `CC(=O)c1cnc2ccc(-c3cc(Cl)c(O)c(Cl)c3)cc2c1N[C@H]1CC[C@H](CN(C)C)CC1` [Example 944, 1-{6-(3,5-Dichloro-4-hydroxyphenyl)-4-[trans-4-((dimethylamino)methyl)cyclohexylamino]quinolin-3-yl}ethanone hydrochloride], the IC50 in experiment [3] (MELK kinase assay, IMAP fluorescence polarization, 50 micro-M ATP, hydrochloride) is 0.00094 µM.
